In ChEMBL document CHEMBL4400538, “Discovery of Carboline Derivatives as Potent Antifungal Agents for the Treatment of Cryptococcal Meningitis” (J Med Chem, 2019):
Converted amounts (≈) assume the structure as drawn. The source made the active and inactive calls. The calls are words filed in the database; no cut-off is given here.

Tests used:
Cryptococcus neoformans [1] = assay: Induction of cell cycle arrest in Cryptococcus neoformans H99 assessed as accumulation at G1 phase at 4 ug/ml after 24 hrs by propidium iodide-staining based FACS analysis (reference value: 44.50%); assay type: functional, var grubii H99
Cryptococcus neoformans [2] = assay: Antifungal activity against Cryptococcus neoformans H99 assessed as up-regulation of CDK1 expression at 2 to 4 ug/ml after 24 hrs by Western blot analysis; assay type: functional, organism-based; settings: var grubii H99
Nakaseomyces glabratus = assay: Antifungal activity against Candida glabrata 8535 after 48 hrs by spectrophotometery; assay type: functional; settings: Nakaseomyces glabratus, 8535, 48 h
Cryptococcus neoformans [3] = assay: Antifungal activity against Cryptococcus neoformans ATCC 34877 after 72 hrs by spectrophotometery; assay type: functional; settings: ATCC 34877, 72 h
Cryptococcus neoformans [4] = assay: Induction of cell cycle arrest in Cryptococcus neoformans H99 assessed as accumulation at G2 phase at 4 ug/ml after 24 hrs by propidium iodide-staining based FACS analysis (reference value: 3.86%); assay type: functional, var grubii H99
Cryptococcus neoformans [5] = assay: Antifungal activity against Cryptococcus neoformans H99 after 48 hrs by growth curve assay; assay type: functional; settings: for MIC80: var grubii H99 
Cryptococcus gattii = assay: Antifungal activity against Cryptococcus gattii ATCC 14116 after 72 hrs by spectrophotometery; settings: ATCC 14116, 72 h
Candida albicans [6] = assay: Antifungal activity against Candida albicans 0304103 after 48 hrs by spectrophotometery; assay type: functional; settings: Candida albicans, 0304103, 48 h
Nannizzia gypsea = assay: Antifungal activity against Microsporum gypseum MZC after 48 hrs by spectrophotometery; assay type: functional
Cryptococcus neoformans [7] = assay: Antifungal activity against Cryptococcus neoformans H99 assessed as damaged cell membranes at 4 ug/ml after 24 hrs by TEM analysis; assay type: functional, organism-based; settings: var grubii H99
Aspergillus fumigatus = assay: Antifungal activity against Aspergillus fumigatus 7544 after 48 hrs by spectrophotometery; assay type: functional; settings: Aspergillus fumigatus, 7544, 48 h
Candida parapsilosis = assay: Antifungal activity against Candida parapsilosis 5008 after 48 hrs by spectrophotometery; assay type: functional; settings: Lodderomyces parapsilosis, 5008, 48 h
Cryptococcus neoformans [8] = assay: Antifungal activity against Cryptococcus neoformans H99 assessed as cell wall collapse at 4 ug/ml after 24 hrs by TEM analysis; assay type: functional, organism-based; settings: var grubii H99
Cryptococcus neoformans [9] = assay: Induction of cell cycle arrest in Cryptococcus neoformans H99 assessed as accumulation at S phase at 4 ug/ml after 24 hrs by propidium iodide-staining based FACS analysis (reference value: 51.64%); assay type: functional, var grubii H99
Cryptococcus neoformans [10] = assay: Antibiofilm activity against Cryptococcus neoformans H99 assessed as inhibition of cellular surface hydrophobicity at 10 ug/ml incubated for 24 hrs by water-hydrocarbon two-phase assay; assay type: functional, organism-based; settings: var grubii H99
Cryptococcus neoformans [11] = assay: Antifungal activity against Cryptococcus neoformans H99 assessed as fragmented nuclei at 4 ug/ml after 24 hrs by TEM analysis; assay type: functional, organism-based; settings: var grubii H99
Cryptococcus neoformans [12] = assay: Antifungal activity against Cryptococcus neoformans H99 assessed as up-regulation of cyclin B1 expression at 2 to 4 ug/ml after 24 hrs by Western blot analysis; assay type: functional, organism-based; settings: var grubii H99
Candida albicans [13] = assay: Antifungal activity against Candida albicans 7781 after 48 hrs by spectrophotometery; assay type: functional; settings: Candida albicans, 7781, 48 h
Cryptococcus neoformans [14] = assay: Antifungal activity against Cryptococcus neoformans H99 after 72 hrs by growth curve assay; assay type: functional; settings: var grubii H99 
Trichophyton rubrum = assay: Antifungal activity against Trichophyton rubrum TIA after 48 hrs by spectrophotometery; assay type: functional
Cryptococcus neoformans [15] = assay: Antifungal activity against Cryptococcus neoformans H99 infected in ICR mouse assessed as reduction in brain fungal load at 20 mg/kg, po administered daily for 5 days; assay type: functional, organism-based; settings: var grubii H99
Cryptococcus neoformans [16] = assay: Antifungal activity against Cryptococcus neoformans H99 assessed as up-regulation of Cdc25C expression at 2 to 4 ug/ml after 24 hrs by Western blot analysis; assay type: functional, organism-based; settings: var grubii H99
Cryptococcus neoformans [17] = assay: Inhibition of melanin production in Cryptococcus neoformans H99 at 2.5 ug/ml; assay type: functional, organism-based; settings: var grubii H99
[18] = Half life in ICR mouse liver microsomes at 1 uM measured up to 45 mins in presence of NADPH by LC-MS/MS analysis; assay type: ADME, Microsome
Cryptococcus neoformans [19] = assay: Antibiofilm activity against Cryptococcus neoformans H99 at 16 ug/ml after 90 mins by XTT assay; assay type: functional, organism-based; settings: var grubii H99
Cryptococcus neoformans [20] = assay: Antifungal activity against Cryptococcus neoformans H99 assessed as inhibition of microbial growth at 8 ug/ml after 12 to 48 hrs by growth curve assay; assay type: functional; settings: var grubii H99, read-out: GI
[21] = Clearance in ICR mouse liver microsomes at 1 uM measured up to 45 mins in presence of NADPH by LC-MS/MS analysis; assay type: ADME, Microsome; settings: 0.75 h
Cryptococcus neoformans [22] = assay: Inhibition of urease production in Cryptococcus neoformans H99 at 10 ug/ml; assay type: functional, organism-based; settings: var grubii H99
[23] = Solubility of the compound; assay type: physicochemical
[24] = Protein binding in mouse plasma; assay type: ADME, cell-free
HUVEC = assay: Cytotoxicity against human HUVEC; assay type: cell-based

| SMILES | MIC80 (Nakaseomyces glabratus) [µg/mL] | MIC80 (Cryptococcus neoformans [3]) [µg/mL] | MIC80 (Cryptococcus neoformans [5]) [µg/mL] | MIC80 (Cryptococcus gattii) [µg/mL] | MIC80 (Candida albicans [6]) [µg/mL] | MIC80 (Nannizzia gypsea) [µg/mL] | MIC80 (Aspergillus fumigatus) [µg/mL] | MIC80 (Candida parapsilosis) [µg/mL] | MIC80 (Candida albicans [13]) [µg/mL] | MIC80 (Cryptococcus neoformans [14]) [µg/mL] | MIC80 (Trichophyton rubrum) [µg/mL] | inhibition (Cryptococcus neoformans [17]) | also measured |
| --- | --- | --- | --- | --- | --- | --- | --- | --- | --- | --- | --- | --- | --- |
| OC(Cn1cncn1)(Cn1cncn1)c1ccc(F)cc1F [FLUCONAZOLE] | 4 (≈ 13.1 µM) | 4 (≈ 13.1 µM) | 4 (≈ 13.1 µM) | 4 (≈ 13.1 µM) | > 64 | 16 (≈ 52.2 µM) | > 64 | 32 (≈ 104 µM) | 32 (≈ 104 µM) | 2 (≈ 6.53 µM) | 2 (≈ 6.53 µM) | inactive | Activity (Cryptococcus neoformans [1]): 50.86%; Activity (Cryptococcus neoformans [2]): inactive; Activity (Cryptococcus neoformans [4]): 0.96%; Activity (Cryptococcus neoformans [7]): Active; Activity (Cryptococcus neoformans [8]): inactive; Activity (Cryptococcus neoformans [9]): 48.17%; Activity (Cryptococcus neoformans [10]): inactive; Activity (Cryptococcus neoformans [11]): Active; Activity (Cryptococcus neoformans [12]): inactive; Activity (Cryptococcus neoformans [15]): Active; Activity (Cryptococcus neoformans [16]): inactive |
| Cc1ccc2c(c1)c1c(n2CCCOc2ccc(Cl)cc2)CNCC1.O=C(O)C(F)(F)F | 2 | 2 | 1 | 2 | 4 | 8 | 8 | 8 | 4 | 2 | 4 | Active | half-life at 1 µM [18]: 11 min; Activity (Cryptococcus neoformans [19]): Active; Activity (Cryptococcus neoformans [5]; var grubii H99): Dose-dependent effect; inhibition of growth at 8 µg/mL (Cryptococcus neoformans [20]): 100%; scaled CLint [21]: 477 mL/min/kg; inhibition (Cryptococcus neoformans [22]): inactive; solubility [23]: 57.5 µg/mL; PPB [24]: Active; Activity (HUVEC): Non-Toxic |
